Experimental data as given in patent EP0049683A2, “Imidazo-rifamycines, process for their preparation, pharmaceutical preparations containing them and their use” (CIBA-GEIGY AG, priority 1980, dated 1982).
Values after ≈ are worked out from the molar mass of the structure shown.

What was measured:
Test in all cases: Agar dilution MIC in DST agar (Ericsson and Sherris)
Format in all cases: cell-based
[1] = system: Escherichia coli 2018; conditions: for MIC: Escherichia coli, 2018, in vitro, read-out: MIC Esch. 2018; for MIC Esch. 2018: in vitro
Description: (§1) Die antibiotische Aktivität der Testverbindungen in vitro wurde durch die Agarverdünnungsmethode nach Ericsson, H.M., und Sherris, S.C., 1971, Acta Path. Microb. Scand. Section B, Suppl. No. 217, Bd. 1-90, in DST Agara ermittelt. Die gefundenen, das Wachstum der Testorganismen noch hemmenden Minimalkonzentrationen (MIC = minimum inhibiting concentrations) werden in Mikrogramm pro Milliliter (µg/ml) für die geprüften Verbindungen in der Tabelle 1 angegeben.

[2] = system: Proteus morganii 2359; conditions: for MIC: Morganella morganii, 2359, in vitro, read-out: MIC Prot. 2359; for MIC Prot. 2359: in vitro
Description: as §1

[3] = system: Escherichia coli 205; conditions: for MIC: Escherichia coli, 205, in vitro, read-out: MIC Esch. 205; for MIC Esch. 205: in vitro
Description: as §1

[4] = system: Pseudomonas aeruginosa K 799/61; conditions: for MIC: Pseudomonas aeruginosa, K799/61, read-out: MIC Pseu. 799; for MIC Pseu. 799: in vitro, agar dilution, DST agar
Description: as §1

[5] = system: Staphylococcus aureus 2999; conditions: for MIC: Staphylococcus aureus, 2999, in vitro, read-out: MIC Staph. 2999
Description: as §1

[6] = system: Staphylococcus aureus 10B; conditions: in vitro; for MIC: Staphylococcus aureus, 10B, read-out: MIC Staph. 10B
Description: as §1

[7] = system: Salmonella Typhimurium 277; conditions: in vitro; for MIC: Salmonella enterica, TYPHIMURIUM, read-out: MIC Salm. 277
Description: as §1

[8] = system: Proteus morganii 1518; conditions: for MIC: Morganella morganii, 1518, in vitro, read-out: MIC Prot. 1518; for MIC Prot. 1518: in vitro
Description: as §1

Row | Compound | MIC [1] | MIC [2] | MIC [3] | MIC [4] | MIC [5] | MIC [6] | MIC [7] | MIC [8] | MIC Esch. 2018 [1] | MIC Prot. 2359 [2] | MIC Esch. 205 [3] | MIC Pseu. 799 [4] | MIC Staph. 10B [6] | MIC Prot. 1518 [8] | MIC Salm. 277 [7] | MIC Staph. 2999 ([5]; in vitro)
1 | COCCN(CCOC)c1nc2c([nH]1)c1c(O)c3c(O)c(C)c4c(c32)C(=O)[C@@](C)(O/C=C/[C@H](OC)[C@@H](C)[C@@H](OC(C)=O)[C@H](C)[C@H](O)[C@H](C)[C@@H](O)[C@@H](C)/C=C/C=C(/C)C(=O)N1)O4 [Verbindung 16, 4-[N-Di-(2-methoxyethyl)-amino]-imidazolo[4,5-c]rifamycin SV] | 8 µg/mL (≈ 9.38 µM) | 4 µg/mL (≈ 4.69 µM) | 8 µg/mL (≈ 9.38 µM) | 8 µg/mL (≈ 9.38 µM) | 0.01 µg/mL (≈ 0.0117 µM) | 0.01 µg/mL (≈ 0.0117 µM) | 32 µg/mL (≈ 37.5 µM) | 2 µg/mL (≈ 2.34 µM) |  |  |  |  |  |  |  | 
2 | CO[C@H]1/C=C/O[C@@]2(C)Oc3c(C)c(O)c4c(O)c(c5nc(N6CCN(CC7CC7)CC6)[nH]c5c4c3C2=O)NC(=O)/C(C)=C\C=C\[C@H](C)[C@H](O)[C@@H](C)[C@@H](O)[C@@H](C)[C@H](OC(C)=O)[C@@H]1C [Verbindung 54, 4-(4-Cyclopropylmethylpiperazinyl)-imidazolo[4,5-c]rifamycin SV] | 8 µg/mL (≈ 9.3 µM) | 8 µg/mL (≈ 9.3 µM) | 8 µg/mL (≈ 9.3 µM) | 16 µg/mL (≈ 18.6 µM) | 0.005 µg/mL (≈ 0.00581 µM) | 0.005 µg/mL (≈ 0.00581 µM) | 32 µg/mL (≈ 37.2 µM) | 8 µg/mL (≈ 9.3 µM) |  |  |  |  |  |  |  | 
3 | 4-[4-(1-Ethylpropyl)-piperazinyl]-imidazolo[4,5-c]rifamycin SV [Verbindung 41] |  |  |  |  |  |  |  |  | 2 µg/mL | 8 µg/mL | 8 µg/mL | 32 µg/mL | 0.005 µg/mL | 8 µg/mL |  | 
4 | CCN(CC)c1nc2c3c(O)c4c(O)c(C)c5c(c4c2[nH]1)C(=O)C(C)(OC=CC(OC)C(C)C(OC(C)=O)C(C)C(O)C(C)C(O)C(C)C=CC=C(C)C(=O)N3)O5 (stereo not shown) [Verbindung 6, 4-Diethylamino-imidazolo[4,5-c]rifamycin SV] | 128 µg/mL (≈ 161 µM) | 128 µg/mL (≈ 161 µM) | 128 µg/mL (≈ 161 µM) | 128 µg/mL (≈ 161 µM) |  |  | 128 µg/mL (≈ 161 µM) | 128 µg/mL (≈ 161 µM) |  |  |  |  |  |  |  | 
5 | 4-(2,6-Dimethyl-morpholino)-imidazolo[4,5-c]rifamycin SV [Verbindung 29] |  |  |  |  |  |  |  |  | 32 µg/mL | 8 µg/mL | 32 µg/mL | 8 µg/mL |  | 8 µg/mL | 128 µg/mL | 
6 | CO[C@H]1/C=C/O[C@@]2(C)Oc3c(C)c(O)c4c(O)c(c5[nH]c(N6CCc7ccccc76)nc5c4c3C2=O)NC(=O)/C(C)=C\C=C\[C@H](C)[C@H](O)[C@@H](C)[C@@H](O)[C@@H](C)[C@H](OC(C)=O)[C@@H]1C [Verbindung 20, 4-Indolinyl-imidazolo[4,5-c]rifamycin SV] | 8 µg/mL (≈ 9.54 µM) | 8 µg/mL (≈ 9.54 µM) | 8 µg/mL (≈ 9.54 µM) | 16 µg/mL (≈ 19.1 µM) |  |  | 32 µg/mL (≈ 38.1 µM) | 4 µg/mL (≈ 4.77 µM) |  |  |  |  |  |  |  | 
7 | 4-(4-Isopropyloxycarbonylpiperazinyl)-imidazolo[4,5-c]-rifamycin SV [Verbindung 68] |  |  |  |  |  |  |  |  | 32 µg/mL | 32 µg/mL | 32 µg/mL | 8 µg/mL | 0.01 µg/mL | 8 µg/mL | 32 µg/mL | 
8 | 4-(4-Pentylpiperazinyl)-imidazolo[4,5-c]rifamycin SV [Verbindung 34] |  |  |  |  |  |  |  |  | 2 µg/mL | 8 µg/mL | 8 µg/mL | 32 µg/mL |  | 8 µg/mL | 32 µg/mL | 
9 | CO[C@H]1/C=C/O[C@@]2(C)Oc3c(C)c(O)c4c(O)c(c5nc(N6CCN(C7CCCCC7)CC6)[nH]c5c4c3C2=O)NC(=O)/C(C)=C\C=C\[C@H](C)[C@H](O)[C@@H](C)[C@@H](O)[C@@H](C)[C@H](OC(C)=O)[C@@H]1C [Verbindung 51, 4-(4-Cyclohexylpiperazinyl)-imidazolo[4,5-c]rifamycin SV] | 32 µg/mL (≈ 36 µM) | 8 µg/mL (≈ 9.01 µM) | 8 µg/mL (≈ 9.01 µM) | 8 µg/mL (≈ 9.01 µM) |  | 0.01 µg/mL (≈ 0.0113 µM) | 32 µg/mL (≈ 36 µM) | 8 µg/mL (≈ 9.01 µM) |  |  |  |  |  |  |  | 
10 | CO[C@H]1/C=C/O[C@@]2(C)Oc3c(C)c(O)c4c(O)c(c5nc(N6CCN(CC7CCCCCC7)CC6)[nH]c5c4c3C2=O)NC(=O)/C(C)=C\C=C\[C@H](C)[C@H](O)[C@@H](C)[C@@H](O)[C@@H](C)[C@H](OC(C)=O)[C@@H]1C [Verbindung 56] | 8 µg/mL (≈ 8.73 µM) | 8 µg/mL (≈ 8.73 µM) | 8 µg/mL (≈ 8.73 µM) | 32 µg/mL (≈ 34.9 µM) |  | 0.005 µg/mL (≈ 0.00546 µM) | 32 µg/mL (≈ 34.9 µM) | 8 µg/mL (≈ 8.73 µM) |  |  |  |  |  |  |  | 
11 | 4-(4-Hexylpiperazinyl)-imidazolo[4,5-c]rifamycin SV [Verbindung 35] |  |  |  |  |  |  |  |  | 8 µg/mL | 8 µg/mL | 8 µg/mL | 8 µg/mL |  | 8 µg/mL | 32 µg/mL | 
12 | 4-[4-(2-Methyl-3-phenyl-propyl)-piperazinyl]-imidazolo- [4,5-c]rifamycin SV [Verbindung 58] |  |  |  |  |  |  |  |  |  | 16 µg/mL | 16 µg/mL | 16 µg/mL | 0.005 µg/mL | 16 µg/mL | 32 µg/mL | 0.005 µg/mL
13 | 4-Thiomorpholino-imidazolo[4,5-c]rifamycin SV [Verbindung 30] |  |  |  |  |  |  |  |  | 8 µg/mL | 8 µg/mL | 8 µg/mL | 32 µg/mL |  | 8 µg/mL | 32 µg/mL | 
14 | C=CCN1CCN(c2nc3c([nH]2)c2c(O)c4c(O)c(C)c5c(c43)C(=O)[C@@](C)(O/C=C/[C@H](OC)[C@@H](C)[C@@H](OC(C)=O)[C@H](C)[C@H](O)[C@H](C)[C@@H](O)[C@@H](C)/C=C/C=C(/C)C(=O)N2)O5)CC1 [Verbindung 44, 4-(4-Allylpiperazinyl)-imidazolo[4,5-c]rifamycin SV] | 8 µg/mL (≈ 9.46 µM) | 8 µg/mL (≈ 9.46 µM) | 8 µg/mL (≈ 9.46 µM) | 32 µg/mL (≈ 37.8 µM) |  |  | 32 µg/mL (≈ 37.8 µM) | 8 µg/mL (≈ 9.46 µM) |  |  |  |  |  |  |  | 
15 | 4-(N-Butyl-N-methylamino)-imidazolo[4,5-c]rifamycin SV [Verbindung 9] |  |  |  |  |  |  |  |  | 8 µg/mL | 8 µg/mL | 8 µg/mL | 8 µg/mL |  | 1 µg/mL | 32 µg/mL | 
16 | C=C(C)CN1CCN(c2nc3c([nH]2)c2c(O)c4c(O)c(C)c5c(c43)C(=O)[C@@](C)(O/C=C/[C@H](OC)[C@@H](C)[C@@H](OC(C)=O)[C@H](C)[C@H](O)[C@H](C)[C@@H](O)[C@@H](C)/C=C/C=C(/C)C(=O)N2)O5)CC1 [Verbindung 46, 4-[4-(2-Methyl-2-propenyl)-piperazinyl]-imidazolo[4,5-c]-rifamycin SV] | 8 µg/mL (≈ 9.3 µM) | 8 µg/mL (≈ 9.3 µM) | 32 µg/mL (≈ 37.2 µM) | 32 µg/mL (≈ 37.2 µM) |  |  | 32 µg/mL (≈ 37.2 µM) | 8 µg/mL (≈ 9.3 µM) |  |  |  |  |  |  |  | 
17 | CCC(C)CCN1CCN(c2nc3c([nH]2)c2c(O)c4c(O)c(C)c5c(c43)C(=O)[C@@](C)(O/C=C/[C@H](OC)[C@@H](C)[C@@H](OC(C)=O)[C@H](C)[C@H](O)[C@H](C)[C@@H](O)[C@@H](C)/C=C/C=C(/C)C(=O)N2)O5)CC1 (stereo partly shown) [Verbindung 42, 4-[4-(3-Methylpentyl)-piperazinyl]-imidazolo[4,5-c]-rifamycin SV] | 8 µg/mL (≈ 8.99 µM) | 8 µg/mL (≈ 8.99 µM) | 8 µg/mL (≈ 8.99 µM) | 32 µg/mL (≈ 36 µM) |  | 0.005 µg/mL (≈ 0.00562 µM) | 32 µg/mL (≈ 36 µM) | 8 µg/mL (≈ 8.99 µM) |  |  |  |  |  |  |  | 
18 | 4-(4-Heptylpiperazinyl)-imidazolo[4,5-c]rifamycin SV [Verbindung 36] |  |  |  |  |  |  |  |  | 8 µg/mL | 8 µg/mL | 2 µg/mL | 8 µg/mL |  | 8 µg/mL | 32 µg/mL | 
19 | CO[C@H]1/C=C/O[C@@]2(C)Oc3c(C)c(O)c4c(O)c(c5nc(N6CCN(c7ccccc7)CC6)[nH]c5c4c3C2=O)NC(=O)/C(C)=C\C=C\[C@H](C)[C@H](O)[C@@H](C)[C@@H](O)[C@@H](C)[C@H](OC(C)=O)[C@@H]1C [Verbindung 52, 4-(4-Phenylpiperazinyl)-imidazolo[4,5-c]rifamycin SV] | 8 µg/mL (≈ 9.07 µM) | 8 µg/mL (≈ 9.07 µM) | 32 µg/mL (≈ 36.3 µM) | 32 µg/mL (≈ 36.3 µM) |  |  | 32 µg/mL (≈ 36.3 µM) | 8 µg/mL (≈ 9.07 µM) |  |  |  |  |  |  |  | 
20 | 4-(4-Isobutyl-2-methyl-piperazinyl)-imidazolo[4,5-c]rifamycin SV [Verbindung 75] |  |  |  |  |  |  |  |  | 8 µg/mL | 8 µg/mL | 8 µg/mL | 32 µg/mL | 0.01 µg/mL | 2 µg/mL | 32 µg/mL | 
21 | CCCC(C)CN1CCN(c2nc3c([nH]2)c2c(O)c4c(O)c(C)c5c(c43)C(=O)[C@@](C)(O/C=C/[C@H](OC)[C@@H](C)[C@@H](OC(C)=O)[C@H](C)[C@H](O)[C@H](C)[C@@H](O)[C@@H](C)/C=C/C=C(/C)C(=O)N2)O5)CC1 (stereo partly shown) [Verbindung 39, 4-[4-(2-Methylpentyl)-piperazinyl]-imidazolo[4,5-c]-rifamycin SV] | 8 µg/mL (≈ 8.99 µM) | 8 µg/mL (≈ 8.99 µM) | 8 µg/mL (≈ 8.99 µM) | 32 µg/mL (≈ 36 µM) |  |  | 32 µg/mL (≈ 36 µM) | 8 µg/mL (≈ 8.99 µM) |  |  |  |  |  |  |  | 
